The results in this text go back to patent US11897917B2, “Bioconjugation of polypeptides” (The University of York, priority 2017, dated 2024).

Where two headings read alike, the source gives them in different places.

The target of one experiment is GFP(Y39ThzK) 2B (Aequorea victoria, UniProt P42212, F64L/H231L/S65T/V163A/Y39K). The conditions noted are these: for effect on GFP (denaturation / unfolding): initial screen, 100 equivalents. Here is the method: Palladium reagent 9 to 12 (stock 550 mM in DMSO, final concentration 33 mM) was added to 2b (stock 330 μM in buffer D1, final concentration 300 μM) in a 0.5 mL Eppendorf tube. The reaction mixture was vortex mixed for 1 s and incubated in a water bath at 37° C. The reaction was quenched by the addition of DTT (ca. 5 mg) and centrifuged (5000×g, 2 min). The supernatant was decanted and desalted using a PD SpinTrap G25 column (GE Healthcare Life Sciences) into H2O for mass spectrometry analysis or further manipulation.
Initially a reaction was set up using 25 μM of 2B (final concentration), 100 μM palladium catalyst (final concentration) in PBS pH 7.4. The reaction mix was then incubated at 37° C. for 1 hour before addition of 1 μl of 1% 3-mercaptopropanoic acid solution for every 10 μl of reaction solution in order to quench excess catalyst. Quenched solution was then incubated at room temperature for 15 minutes and then desalted using a PD SpinTrap G25 column (GE Healthcare Life Sciences) into H2O for mass spectrometry analysis or further manipulation. Efficiency of decaging was determined by ESI-MS.
This reaction process was repeated using protein concentrations of 2B up to 300 μM and catalyst concentrations.
9-12 were trialled at 37° C. at pH 7.4 in order to maintain biocompatibility over a range of concentrations and time intervals (Table 1).

The subject of a further experiment is glyoxyl-LYRAG 16A. Description: screening of organocatalysts and aldehyde donors for OPAL reaction. Here is the method:
Initially a panel of secondary amines was screened to investigate their ability to catalyse the ligation using a model peptide substrate, glyoxyl-LYRAG 16A and acetaldehyde as an aldehyde donor 32. Second order rate constants for each catalyst (33-38) at 1, 10, and 25 mM loadings were obtained. Next the nature of the α-carbon substituent of the aldehyde donor was investigated by performing reactions using aldehyde donors bearing an aryl substituent (e.g. phenyl acetylaldehyde). Reactions were as shown in Scheme 7 below.
Encouraged by the biological compatibility and site selectivity in these preliminary ligations, attention next turned to optimizing the OPAL by focusing on the choice of organocatalyst and aldehyde donor species. Initially a panel of secondary amines (33-38) were screened to investigate their ability to catalyse the ligation using a model peptide substrate α-oxo-aldehyde-LYRAG 16A and acetaldehyde 32, and second order rate constants were obtained for each catalyst at 1, 10, and 25 mM loadings (Table 4).

For experiment [1], the system named is α-phenyl-β-hydroxy aldehyde-LYRAG 50. Description: screening of aniline catalysts for oxime ligation of aldol-LYRAG. The conditions noted are these: 100 mM catalyst, 37° C., 18 hours. Here is the method:
[…] The solution as then charged with an aniline catalyst 56-59 (1M, 50 μl, DMSO). The reaction was vortexed, and allowed to sit at 37° C. for 18 hours without further agitation. Conversion to the product 52 was confirmed by LC-MS analysis.

The test system is the same in experiment [2]. Description: screening of aniline catalysts and buffer for retro-aldol decomposition of aldol-LYRAG. Here is the method: The solution was then charged with an aniline catalyst (1M in 50 μl DMSO) selected from compounds 56, 57, 58 and 59 as shown in Scheme 10 below. The reaction was vortexed, and allowed to sit at 37° C. for 18 hours without further agitation. Conversion to the product 16A/16B was confirmed by LC-MS analysis.
[…] The solution was then charged with p-anisidine catalyst 57 (1M, 50 μl, DMSO). The reaction was vortexed, and allowed to sit at 37° C. for 18 hours without further agitation (Scheme 11). Conversion to the product 16A/16B was confirmed by LC-MS analysis.

[3] abbreviates: 100 equiv. [Pd], 6 h, 37° C., pH 7.4.
The mark [4] stands for this setting: organocatalyst loading 1 mM, Donor R group = CH3.
Setting [5] is: organocatalyst loading 1 mM, Donor R group = Phenyl-alanine.
[6] abbreviates: organocatalyst loading 10 mM, Donor R group = CH3.
Setting [7] is: organocatalyst loading 10 mM, Donor R group = Phenyl-alanine.
Setting [8] is: organocatalyst loading 25 mM, Donor R group = CH3.
Setting [9] is: organocatalyst loading 25 mM, Donor R group = Phenyl-alanine.
Where [10] appears, read: pH 7.5, 50 to 16A, PB 200 mM, 37° C., 18 hours.

On to `CC(=O)[O-].CC(=O)[O-].[Pd+2]` [compound 9, Palladium(II) acetate], for which the GFP fluorescence entry is recorded as “Yes” on GFP(Y39ThzK) 2B (100 equiv. [Pd], 6 h) and “Yes” on GFP(Y39ThzK) 2B (100 equiv. [Pd], 24 h). Also, the “effect on GFP (denaturation / unfolding)” value on GFP(Y39ThzK) 2B (37° C., pH 7.4) was “immediate denaturation and eventual precipitation”.

In the case of `CN(C)c1ccc(P(C(C)(C)C)C(C)(C)C)cc1.CN(C)c1ccc(P(C(C)(C)C)C(C)(C)C)cc1.[Cl-].[Cl-].[Pd+2]` [compound 10, dichlorobis[di-tert-butyl(4-dimethylaminophenyl)phosphine]palladium(II)], the GFP fluorescence entry is “No” at GFP(Y39ThzK) 2B (100 equiv. [Pd], 6 h) and “No” at GFP(Y39ThzK) 2B (100 equiv. [Pd], 24 h). Further, the “% conversion (decaging)” value on GFP(Y39ThzK) 2B (setting [3]) was 0%; on GFP(Y39ThzK) 2B (100 equiv. [Pd], 24 h), 0%.

Take `C=C[CH2-].C=C[CH2-].[Cl][Pd+].[Cl][Pd+]` [compound 11, Allylpalladium(II) chloride dimer]: the “concentration at which reagent denatures GFP” value at GFP(Y39ThzK) 2B is given as “greater than 0.5 mM”. Also, the GFP fluorescence result is “Yes” at GFP(Y39ThzK) 2B (1 equiv. [Pd], 1 h); “No” at GFP(Y39ThzK) 2B (100 equiv. [Pd], 6 h); “No” on GFP(Y39ThzK) 2B (100 equiv. [Pd], 24 h). The “% conversion (decaging)” value at GFP(Y39ThzK) 2B (setting [3]) came out at 30%. Further, the “effect on GFP (denaturation / unfolding)” value on GFP(Y39ThzK) 2B (37° C., pH 7.4) was “immediate denaturation and eventual precipitation”.

Turning to `O=C(/C=C/c1ccccc1)/C=C/c1ccccc1.O=C(/C=C/c1ccccc1)/C=C/c1ccccc1.O=C(/C=C/c1ccccc1)/C=C/c1ccccc1.[Pd].[Pd]` [compound 12, Tris(dibenzylideneacetone)dipalladium(0)], the GFP fluorescence entry at GFP(Y39ThzK) 2B (1 equiv. [Pd], 1 h) is reported as “Yes”; at GFP(Y39ThzK) 2B (100 equiv. [Pd], 6 h), “Yes”; on GFP(Y39ThzK) 2B (100 equiv. [Pd], 24 h), “Yes”; at GFP(Y39ThzK) 2B (100 equiv. [Pd], 40 h), “Yes”; on GFP(Y39ThzK) 2B (100 equiv. [Pd], 68 h) it was “Yes”; at GFP(Y39ThzK) 2B (200 equiv. [Pd], 6 h), “Yes”. The “% conversion (decaging)” value is listed as 80% at GFP(Y39ThzK) 2B (100 equiv. [Pd], 24 h); 100% at GFP(Y39ThzK) 2B (100 equiv. [Pd], 40 h); 90% on GFP(Y39ThzK) 2B (100 equiv. [Pd], 68 h); 40% at GFP(Y39ThzK) 2B (200 equiv. [Pd], 6 h). Moreover, on GFP(Y39ThzK) 2B (ESI-MS, after 24 h), the “Conversion of 2B to 13A/B” value is given as more than 95%. Moreover, the “time to completion of decaging” value on GFP(Y39ThzK) 2B (after condition optimisation) was not above 24 h. The “time to complete decaging” value on GFP(Y39ThzK) 2B (initial conditions) stood at 48 h. Besides, the “effect on GFP (denaturation / unfolding)” value on GFP(Y39ThzK) 2B (37° C., pH 7.4) is “did not lead to GFP unfolding”.

As to `O=C(O)[C@@H]1CCCN1` [compound 33, L-proline], the “Second Order Rate Constant” value in the experiment with glyoxyl-LYRAG 16A (setting [4]) was 0.00009 M⁻¹ s⁻¹; in the experiment with glyoxyl-LYRAG 16A (setting [5]), 1.684 M⁻¹ s⁻¹; in the experiment on glyoxyl-LYRAG 16A (setting [6]), 0.0033 M⁻¹ s⁻¹; with glyoxyl-LYRAG 16A (setting [7]), 4.366 M⁻¹ s⁻¹; with glyoxyl-LYRAG 16A (setting [8]), 0.0100 M⁻¹ s⁻¹; with glyoxyl-LYRAG 16A (setting [9]) it was 7.899 M⁻¹ s⁻¹.

For `C1CCNCC1` [compound 35, Piperidine], the “Second Order Rate Constant” value in the experiment with glyoxyl-LYRAG 16A (setting [4]) was more than 0.0001 M⁻¹ s⁻¹; in the experiment with glyoxyl-LYRAG 16A (setting [6]) it was 0.0009 M⁻¹ s⁻¹; in the experiment on glyoxyl-LYRAG 16A (setting [8]), 0.0016 M⁻¹ s⁻¹.

With `O=C(O)[C@@H]1CCN1` [compound 36, L-Azetidine 2 carboxylic acid], the entries for the “Second Order Rate Constant” value in the experiment with glyoxyl-LYRAG 16A (setting [4]), with glyoxyl-LYRAG 16A (setting [6]) and in the experiment with glyoxyl-LYRAG 16A (setting [8]) were 0.0004 M⁻¹ s⁻¹, 0.0024 M⁻¹ s⁻¹ and 0.0052 M⁻¹ s⁻¹, respectively.

For `C1CNCCOC1` [compound 37, Homomorpholine], the entries for the “Second Order Rate Constant” value with glyoxyl-LYRAG 16A (setting [4]), with glyoxyl-LYRAG 16A (setting [6]) and with glyoxyl-LYRAG 16A (setting [8]) were 0.0022 M⁻¹ s⁻¹, 0.0166 M⁻¹ s⁻¹ and 0.0252 M⁻¹ s⁻¹, respectively.

Consider `C1CN[C@H](c2nnn[nH]2)C1` [compound 38, (S)-(−)-5-(2-Pyrrolidinyl)-1H-tetrazole], for which the “Second Order Rate Constant” value in the experiment on glyoxyl-LYRAG 16A (setting [4]) came to 0.0092 M⁻¹ s⁻¹; in the experiment on glyoxyl-LYRAG 16A (setting [5]) it was 3.792 M⁻¹ s⁻¹; in the experiment with glyoxyl-LYRAG 16A (setting [6]), 0.0551 M⁻¹ s⁻¹; with glyoxyl-LYRAG 16A (setting [7]), 11.820 M⁻¹ s⁻¹; in the experiment on glyoxyl-LYRAG 16A (setting [8]) it was 0.0997 M⁻¹ s⁻¹; in the experiment with glyoxyl-LYRAG 16A (setting [9]) it was 23.947 M⁻¹ s⁻¹.

For `Nc1ccccc1` [compound 56, aniline], the results for the “Conjugation Yield (oxime)” value in experiment [1] (pH 4.5) and in experiment [1] (pH 7.5) were 61% and 95%, respectively. This compound also registered a Retro-aldol conversion in experiment [2] (setting [10]) of 25%.

`COc1ccc(N)cc1` [compound 57, p-anisidine]: the entries for the “Conjugation Yield (oxime)” value in experiment [1] (pH 4.5) and in experiment [1] (pH 7.5) were 81% and 92%, respectively. The Retro-aldol conversion in experiment [2] (PB, pH 7.5, conc. 10 (Mm)) was 0%; in experiment [2] (PB, pH 7.5, conc. 50 (Mm)), 13%; in experiment [2] (PB, pH 7.5, conc. 100 (Mm)), 50%; in experiment [2] (setting [10]), 52%.

With `COc1ccc(N)c(C(=O)O)c1` [compound 58, 5-methoxy anthranilic acid], the “Conjugation Yield (oxime)” value is given as 34% in experiment [1] (pH 4.5) and 97% in experiment [1] (pH 7.5). The Retro-aldol conversion in experiment [2] (setting [10]) amounted to 8%.

In the case of `Nc1cc([N+](=O)[O-])ccc1O` [compound 59, 2-Amino-4-nitrophenol], the “Conjugation Yield (oxime)” value is reported as “precipitates” in experiment [1] (pH 4.5) and 97% in experiment [1] (pH 7.5). For the same compound, the Retro-aldol conversion in experiment [2] (setting [10]) came to 0%.

In the case of `O=CCc1ccccc1` [phenyl acetylaldehyde], the “increase in rate over aldehyde donors bearing alkyl substituents” value with glyoxyl-LYRAG 16A (with L-proline 33 and tetrazole 38) is reported as not below 240 fold.

As to Pyrrolidine [compound 34], the “Second Order Rate Constant” value in the experiment on glyoxyl-LYRAG 16A (setting [4]) is 0.0005 M⁻¹ s⁻¹; in the experiment on glyoxyl-LYRAG 16A (setting [6]), 0.0037 M⁻¹ s⁻¹; in the experiment on glyoxyl-LYRAG 16A (setting [8]), 0.0058 M⁻¹ s⁻¹.
